Source: patent US20260306490A1, “PIM1 INHIBITOR FOR TREATING MYELOPROLIFERATIVE NEOPLASMS” (Sumitomo Pharma America, Inc., priority 2022, published 2026)

System: MF patients
Assay: Phase 1/2 clinical study in MF patients treated with HCl salt of Compound (1) (TP-3654-102)
Type: in vivo, human
Parameters: reduction in IL6 / reduction in IL12p40 / reduction in MMP9 / reduction in EN-RAGE / median TSS reduction from baseline: concentration or dose not given beside the values
Method: Patients with MF (primary MF, post-PV MF, post-ET MF) and DIPSS intermediate-1, intermediate-2, or high risk were enrolled in a Phase 1/2 clinical study.
Dose escalation to 960 mg BID and 1440 mg BID is intended.
Patients had to meet all of the following inclusion criteria to enroll in the study: • 1. Adult (≥18 years of age) • 2. Confirmed pathological diagnosis of primary MF (PMF) or post-PV-MF/postET-MF as per WHO diagnostic criteria and intermediate or high-risk primary or secondary MF based on the Dynamic International Prognostic Scoring System (DIPSS). • 3. Previously treated with a JAK inhibitor and are intolerant, resistant, refractory or lost response to the JAK inhibitor, or are ineligible to be treated with ruxolitinib or fedratinib at the discretion of the investigator. • 4. Grade≥2 bone marrow fibrosis, as confirmed by bone marrow biopsy within 12 weeks prior to Screening. • 5. Fulfill the following laboratory parameters: • a. Platelet count≥25×10^9/L (without the assistance of growth factors or platelet transfusions) • b. Absolute neutrophil count (ANC)≥1×10^9/L without the assistance of granulocyte growth factors. • 6. Peripheral blood blast count<10%. • 7. Eastern Cooperative Oncology Group (ECOG) performance status≤2. • 8. Life expectancy≥3 months. • 9. […] Adequate hepatic function (ALT/AST≤3×ULN, total bilirubin≤1.5×ULN; or ALT/AST≤5×ULN, direct bilirubin≤2×ULN if due to MF); and coagulation ([PT and PTT]≤1.5×ULN). • 11. Agree to provide bone marrow biopsies during the study: at baseline or within 12 weeks prior to enrollment, and every 6 months during treatment. • 12. Capable of providing signed informed consent as described in which includes compliance with the requirements and restrictions listed in the informed consent form (ICF) and in this protocol • 13. […] Show at least 2 symptoms measurable (score≥1) using the Myelofibrosis Symptom Assessment Form (MFSAF), v4.0. • 16. Able to take orally administered medication
Patients meeting any one of the exclusion criteria were prohibited from participating in the study: • 1. Received previous systemic antineoplastic therapy (including unconjugated therapeutic antibodies, toxin immunoconjugates, ESA, and alpha-interferon) or any experimental therapy within 14 days or 5 half-lives, whichever is longer, before the first dose of study treatment. • 2. Major surgery within 2 weeks before the first dose of either study drug. • 3. Splenic irradiation within 6 months prior to Screening or prior splenectomy. • 4. AML, MDS, or peripheral blasts≥10%. • 5. Prior autologous or allogeneic stem cell transplant at any time. • 6. Eligible for allogeneic bone marrow or stem cell transplantation within 3 months following enrollment (not a candidate or not willing to undergo transplantation or a suitable donor not available are considered as transplant ineligible). • 7. Currently receiving treatment with a prohibited medication that cannot be discontinued at least one week prior to the start of treatment. • 8. Experiencing electrolyte abnormalities of NCI CTCAE Grade≥2 (e.g., serum potassium, magnesium and calcium) unless they can be corrected during screening and are deemed not clinically significant by the Investigator. • 9. History of congestive heart failure, myocardial infarction within the past 6 months prior to Cycle 1/Day 1; left ventricular ejection fraction<45% by echocardiogram or MUGA, unstable arrhythmia, or evidence of ischemia on electrocardiogram (ECG) within 14 days prior to Cycle 1/Day 1. • 10. Corrected QT interval (using Fridericia's correction formula) of >450 msec in men and >470 msec in women. • 11. Central nervous system (CNS) cancer or metastases, meningeal carcinomatosis, malignant seizures, or a disease that either causes or threatens neurologic compromise (e.g., unstable vertebral metastases). • 12. Other invasive malignancies within the last 3 years, except non-melanoma skin cancer, and localized cured prostate and cervical cancer • 13. […]

[1] = R/R MF, ≥25 × 10^9/L PLT, monotherapy
[2] = TP-3654-102, R/R MF, monotherapy, N = 23
[3] = first interim analysis, FIG. 5G
[4] = first interim analysis, monotherapy, 480 mg QD to 720 mg BID
[5] = first interim analysis, over treatment duration
[6] = first interim analysis, treatment duration ≥12 weeks
[7] = one patient with bone marrow fibrosis reduction
[8] = second interim analysis, MFSAF v4.0
[9] = second interim analysis, n = 13

## CC(C)(O)[C@H]1CC[C@H](Nc2ccc3ncc(-c4cccc(C(F)(F)F)c4)n3n2)CC1 [Compound (1)]
R/R MF, Ph 1
  Hem AE (>10%), thrombocytopenia: No ≥G3
[1]
  SVR35 at Week 24: 23%
  TSS50 at Week 24: 54%
[2]
  TEAE Anemia, All Gr: 13%
  TEAE Anemia, ≥3 Gr: 4.3%
  TEAE Neutropenia, All Gr: 0%
  TEAE Neutropenia, ≥3 Gr: 0%
  TEAE Thrombocytopenia, All Gr: 22%
  TEAE Thrombocytopenia, ≥3 Gr: 13%
First interim analysis
  patients with myelosuppressive adverse events (anemia, neutropenia, thrombocytopenia): 1 patient
  time at which cytokine modulation was observed (as early as): ≤ 24 h
[3]
  patients with reduced spleen size and reduced symptoms: 4 patients
  patients with spleen volume increase and reduced symptoms: 1 patient
  patients with spleen volume reduction and increased symptoms: 1 patient
First interim analysis, cytokine changes available for 7 patients
  reductions in cytokines vs total symptoms reduction: More reductions in cytokines were observed in patients who had more total symptoms reduction
[4]
  hemoglobin: increased in some patients
  neutrophil counts: stable
  platelet counts: stable or increased
[5]
  spleen volume, median best change: −13%
  total symptom score, median best change: −70%
[6]
  patients with spleen volume reduction: Eight out of 10
  patients with total symptom reduction: Nine out of 10
For most patients, monotherapy
  change for platelet count, hemoglobin, and neutrophil reduction: less than 1 grade
[7]
  reduction in EN-RAGE: 68%
  reduction in IL12p40: 83%
  reduction in MMP9: 56%
One patient with bone marrow fibrosis reduction, printed 1L6
  reduction in IL6: 68%
One patient, on active treatment >18 months
  bone marrow fibrosis reduction: from grade 3 to 2
Relative to toxicities reported for other MF treatments
  overlapping hematological toxicities (thrombocytopenia and/or anemia): minimal or no indication of overlapping hematological toxicities
Second interim analysis
  patients achieving ≥35% SVR (number): 3 of 13
Second interim analysis, 13 evaluable patients
  median spleen volume change: −11%
Second interim analysis, 23 patients, 5 dose levels
  dose limiting toxicities: no dose limiting toxicities
[8]
  median TSS reduction from baseline: 70%
  patients with TSS reduction: 12 out of 13
  patients with ≥50% TSS reduction (number): Seven of 13
[9]
  patients achieving ≥35% SVR (percent): 23%
  patients with ≥50% TSS reduction (percent): 54%
Second interim analysis, of seven patients with ≥50% TSS reduction
  patients with ≥50% TSS reduction and durable response for ≥12 weeks: 5 patients
Second interim analysis, ≥12 weeks of treatment, 13 evaluable
  patients with spleen volume reduction (SVR): 10 patients
Second interim analysis, printed mg BTD
  doses declared safe: up to 720 mg
